What is called IC50 is the concentration that inhibits the measured activity by half.

From US8524861B2, “Treatment of bacterial infections” (priority 2004, dated 2013) come the findings set out here.

Holding throughout (assay type): cell-based
The test system of assay [1] is Streptococcus pneumoniae. Here is the method: The peptides were examined for antibacterial efficacy against Staphylococcus aureus. To test the efficacy of peptides, dilutions of test peptides or PBS (for use as a control) were prepared in LB broth, and 100 μl aliquots of these placed in 96-well plates. A vial of planktonic bacterial stock was thawed in a 37° C. incubator and diluted to the level previously determined which would produce log phase growth after overnight incubation (see above). 25 μl of this bacterial dilution was then added to the test wells (some wells containing LB broth without peptide were left without any bacterial inoculation, these being used as a blank). After overnight growth, the concentration of bacteria in individual wells was assessed by measuring absorbance at 620 nm, in a microplate spectrophotometer. The average absorbance of wells for specific concentrations of peptides was calculated, and from this the percentage inhibition (relative to untreated wells) was also calculated and plotted against concentration (along with an estimate of error on that % inhibition). […] The inventor constructed an expanded library of peptides derived from either apolipoprotein B or apolipoprotein E in order to further evaluate polypeptides in accordance with the invention. Further experiments were then conducted to investigate the antibacterial activity of this peptide library against the bacteria P. aeroginosa, S. aureus and S. pneumoniae. The methods used to determine the IC50 values for each peptide were as described in the Example 1.

Assay [2] has as its system Pseudomonas aeruginosa. Here is the method:
To test the effect of treatment of the polypeptides according to the invention by autoclaving, a 400 μM stock solution of GIN1p was prepared in PBS, and 420 μl aliquots were placed in four Eppendorf tubes (with screw lids). After securing the lids, two of the tubes were loaded into a metal rack held within a Pyrex beaker, and placed into a Prestige Medical Clinical Autoclave. The remaining two tubes were left untreated, as a control. The autoclave was then activated, and underwent two autoclave cycles, each of which involved exposure of the peptide solutions to 126° C. for 11 min. Finally, efficacy of the two autoclaved and the two control peptide samples against P. aeruginosa was tested as previously described.
Referring to FIG. 7, there is shown the level of growth of Pseudomonas aeruginosa after exposure of a bacterial inoculum to various concentrations of GIN 1p (a polypeptide in accordance with the present invention) which had been either autoclaved or without autoclaving, expressed as a % of growth for untreated bacteria. Accordingly, polypeptides according to the invention are therefore suitable for use with products, which would normally be sterilised by autoclaving during the manufacturing procedure.

Assay [3] concerns Pseudomonas aeruginosa (ATCC strain 9027). As to conditions: summary in description. In a few lines: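 Peptide dilutions in LB broth were inoculated with thawed planktonic stock diluted to reach log-phase growth after overnight incubation at 37° C. Growth was read as absorbance at 620 nm. IC50 came from % inhibition versus untreated wells, using means of six wells.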

Take Ac-LRKLRKRLLLRKLRKRLL-NH2 [MU_10]: the figures for the half-maximal inhibitory concentration (IC50) in assay [1] and in assay [2] were 45 µM and about 2 µM, respectively. Further, the “Effectiveness against Pseudomonadales, in particular P. aeruginosa, in words” value in assay [3] is recorded as “particularly effective”.
